{"source": "patent US8529915B2", "about": "“(R)-(-)-1,2-propanediol compositions and methods” (priority 2010, dated 2013)", "key": {"humans": {"tested_on": "humans", "conditions": "based on intravenous infusion studies; cited from earlier work"}, "rodents": {"tested_on": "rodents", "conditions": "oral; cited from earlier work"}, "philtrum skin": {"tested_on": "philtrum skin", "assay": "philtrum skin cooling bioassay", "assay_type": "in vivo, human", "conditions": "for cooling activity AUC in (R)-1,2-propanediol / cooling activity AUC in racemic-1,2-propanediol: ± S.E.M.; for cooling effect: applied to the philtrum", "description": "The term “alcoholic solvent” refers to a chemical with one to four carbons with at least one hydroxyl group attached to a carbon atom. A reliable place for topical application is the skin above the upper lip (above the vermilion border of the lips), on the philtrum, lateral to the philtrum until the nasolabial folds, and on the lower nostrils (subnasale). This part of the face is known to be densely innervated with cold receptors, second only to the surfaces of the eyeball and anogenitalia. Tingling, cool and cold sensations from the skin may be experienced and rated for time of onset and intensity.\nThe intervals for recording sensations are 5 to 10 minutes, until two successive zeroes are obtained. The results (shown in the Figures) are averaged values of 4 to 6 separate trials in the same individual. The data are plotted using SigmaPlot (Systat Software, Point Richmond Calif.) and a smoothing function with a negative exponential was used for analysis and statistical fit of the results. The onset of drug action is taken as the time to reach 2 units of coolness intensity, and offset of drug action is the time when coolness intensity drops below 2, after previously surpassing 2 units. The duration of cooling action is defined as the offset time minus the onset time and the primary index of effect. […]\nUsing a cotton-tipped applicator (e.g. Q-tips®) 0.10 to 0.25 ml of the test solution was applied to the skin above the upper lip, on the philtrum, and lateral to the philtrum up to the nasolabial folds, and the onset and duration of cooling sensations noted. […] The interval for recording sensations was at 5 to 10 minute intervals, until at least two successive zeroes were obtained. The results were averaged values of 3 to 6 separate trials in the same individual. The “onset” is the time taken to reach a coolness intensity value of 2. […] The “off-set” is when the coolness intensity drops below 2, and the duration is the time of off-set minus the time of onset. The area under the curve (AUC) also gives an estimate of the intensity and duration of drug action and can be obtained from the plotted data using SigmaPlot (Systat Software, Point Richmond Calif.). The AUC is given in average ±S.E.M. units which is the product of cooling intensity×min."}, "tongue": {"tested_on": "tongue", "conditions": "average for 6 subjects, filter paper on dorsal tongue, 30 seconds; cited from earlier work"}, "solubility in solvents": {"assay": "solubility in solvents", "assay_type": "physicochemical", "conditions": "organic solvent or mixture", "experimental": "Many cooling agents are more soluble in ethanol than in 1,2-propanediol. For example, W-3 and CPS-369 are soluble in absolute ethanol at >300 mg/ml and >500 mg/ml, respectively. These compounds are less soluble in 1,2-propanediol, with solubilities of about 10 mg/ml at standard conditions. To formulate liquid compositions of cooling agents, it is convenient to use up to 5% of ethanol in the total volume to dissolve the cooling agent and then add the rest as (R)-1,2-propanediol to complete the formulation without significant loss of cooling actions."}, "[1]": {"tested_on": "itch (contact dermatitis) on the scalp", "assay": "scalp itch (contact dermatitis) case, topical application", "assay_type": "in vivo, human", "conditions": "for sensations of coolness after application to scalp: 5 mg/ml in 1% ethanol-99% (R)-1,2-propanediol, droplet delivery; for itch after two days of applications: applications spaced approximately 10 hours apart, scalp", "experimental": "An individual developed intense itch (contact dermatitis) on the scalp at the base of the skull after use of hair dye. A cotton-tipped stick was used to apply CPS-410 or CPS-412, 5 mg/ml dissolved in a 1% ethanol-99% (R)-1,2-propanediol, to the site of itch. The itch sensations were suppressed within 5 min of application of either solution and this effect lasted for at least 8 hr. In a second experiment, the solutions were applied using a plastic bottle with a conical Yorker spout. This allowed more precise droplet delivery of the solution to the site of itch. […] The advantage of liquid formulation is the ease of uniform delivery to the inflamed site, a method not achievable with cream or ointment. Itch symptoms of hair and fur occur in seborrheic dermatitis, psoriasis, insect bites, canine pruritus, and allergic dermatitis. Liquid formulations containing (R)-1,2-propanediol and a cooling agent may be therapeutically valuable in these conditions."}, "TRP-M8 receptor": {"target": "TRP-M8 receptor (Homo sapiens, UniProt Q7Z2W7)", "sequence (Q7Z2W7 whole entry)": "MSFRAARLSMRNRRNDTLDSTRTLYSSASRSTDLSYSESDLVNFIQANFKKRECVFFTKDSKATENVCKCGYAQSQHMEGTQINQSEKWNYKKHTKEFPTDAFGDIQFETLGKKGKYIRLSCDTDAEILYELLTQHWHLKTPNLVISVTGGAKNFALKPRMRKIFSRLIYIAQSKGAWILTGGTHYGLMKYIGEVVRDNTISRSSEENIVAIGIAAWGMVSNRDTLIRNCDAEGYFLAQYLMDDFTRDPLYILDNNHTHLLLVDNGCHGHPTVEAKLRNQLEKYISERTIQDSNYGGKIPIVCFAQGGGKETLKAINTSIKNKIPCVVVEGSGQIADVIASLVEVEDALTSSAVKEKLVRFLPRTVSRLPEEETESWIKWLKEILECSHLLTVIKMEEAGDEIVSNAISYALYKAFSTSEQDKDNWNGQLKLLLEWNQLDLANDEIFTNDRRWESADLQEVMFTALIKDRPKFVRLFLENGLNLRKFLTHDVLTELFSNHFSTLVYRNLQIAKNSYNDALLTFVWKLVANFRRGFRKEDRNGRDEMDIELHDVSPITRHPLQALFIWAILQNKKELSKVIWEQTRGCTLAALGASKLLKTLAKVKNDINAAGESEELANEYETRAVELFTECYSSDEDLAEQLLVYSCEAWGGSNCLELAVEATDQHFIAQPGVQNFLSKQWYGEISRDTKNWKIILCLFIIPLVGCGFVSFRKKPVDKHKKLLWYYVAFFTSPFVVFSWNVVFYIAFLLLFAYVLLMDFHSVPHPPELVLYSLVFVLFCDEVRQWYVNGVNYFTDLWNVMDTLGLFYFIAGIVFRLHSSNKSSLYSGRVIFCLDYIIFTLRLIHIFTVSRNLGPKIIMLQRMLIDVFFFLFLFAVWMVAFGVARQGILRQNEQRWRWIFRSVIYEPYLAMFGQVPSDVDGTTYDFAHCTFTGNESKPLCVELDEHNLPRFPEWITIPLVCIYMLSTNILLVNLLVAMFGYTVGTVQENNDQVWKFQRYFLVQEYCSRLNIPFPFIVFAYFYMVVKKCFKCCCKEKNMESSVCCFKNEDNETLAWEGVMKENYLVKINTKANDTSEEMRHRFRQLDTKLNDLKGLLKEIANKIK", "conditions": "cited from earlier work"}, "[2]": {"tested_on": "axillary skin lesion of plaque psoriasis", "assay": "plaque psoriasis case, axillary skin lesion itch and burning", "assay_type": "in vivo, human", "conditions": "same patient, subsequent treatment", "description": "A person with an 8-year history of plaque psoriasis complained of an axillary skin lesion that itched, had burning sensations, and kept them awake at night. Their condition was severe and chronic. Their parent complained that they had to vacuum their bedroom every day in order to remove flaking skin debris. […] They volunteered to try CPS-148, 2% dissolved in 1% ethanol-99% (R)-1,2-propanediol, and was given instructions on how to apply the solution to their site of itch with a swab stick (Q-tip™). They claimed after the first time of application at night the burning sensations and itch disappeared within 5 to 10 min and they were able to have a good night's sleep. They continued to use the solution on an “as-needed basis” for one month and claimed that they slept much better than before."}, "[3]": {"conditions": "CPS-369 at 10 mg/ml dissolved in the named solvent, applied to philtrum skin, based on AUC, inactive = coolness intensity did not exceed 2 units"}, "[4]": {"conditions": "absolute ethanol, read-out: solubility in absolute ethanol"}, "[5]": {"conditions": "1,2-propanediol, standard conditions, read-out: solubility in 1,2-propanediol"}, "[6]": {"conditions": "5 mg/ml, (R)-1,2-propanediol with 1% ethanol vol/vol, philtrum"}, "[7]": {"conditions": "5 mg/ml, racemic 1,2-propanediol with 1% ethanol vol/vol, philtrum"}}, "note": "Entries after “also recorded” stand apart in the source; their conditions may differ. Read-outs that look alike come from different tables or passages of the source.", "data": [{"compound": "CC(O)CO", "note": "(racemic) [racemic 1,2-propanediol, 1,2-propanediol]", "values": [{"measurement": "estimated “safe” dose", "setting": "humans", "value": "1 g per kg body weight per day"}, {"measurement": "median lethal dose", "setting": "rodents", "value": "about 25 ml/kg of body weight"}]}, {"compound": "CC(O)CCO", "note": "(racemic) [racemic 1,3-butanediol, 1,3-butanediol]", "values": [{"measurement": "Cooling Activity % (relative to (R)-1,2-propanediol)", "setting": "philtrum skin; [3]", "value": 10, "unit": "%"}, {"measurement": "Cooling Activity % (relative to (R)-1,2-propanediol)", "setting": "philtrum skin; in vivo", "value": "significant loss of cooling activity"}]}, {"compound": "CC1CCC(C(C)C)C(O)C1", "note": "(single isomer, unassigned; (-)) [(−)-menthol]", "values": [{"measurement": "Threshold (amount producing cooling sensations on the tongue), average", "setting": "tongue", "value": 0.25, "unit": "µg"}]}, {"compound": "OCCCO", "note": "[1,3-propanediol]", "values": [{"measurement": "Cooling Activity % (relative to (R)-1,2-propanediol)", "setting": "philtrum skin; [3]", "value": "significant loss of cooling activity; also recorded: inactive"}]}, {"compound": "C[C@H](O)CO", "note": "[(S)-1,2-propanediol]", "values": [{"measurement": "Cooling Activity % (relative to (R)-1,2-propanediol)", "setting": "philtrum skin; [3]", "value": 47, "unit": "%"}]}, {"compound": "CCCCCCP(=O)(C(C)CC)C(C)CC", "note": "(stereo not drawn) [CPS-147, 1-(Di-sec-butyl-phosphinoyl)-hexane]", "values": [{"measurement": "cooling activity AUC in (R)-1,2-propanediol", "setting": "philtrum skin; 3 mg/ml, (R)-1,2-propanediol with 2% ethanol vol/vol, philtrum", "value": "81 ± 4", "unit": "cooling intensity × min"}, {"measurement": "cooling activity AUC in racemic-1,2-propanediol", "setting": "philtrum skin; 3 mg/ml, racemic 1,2-propanediol with 2% ethanol vol/vol, philtrum", "value": "64 ± 4", "unit": "cooling intensity × min"}]}, {"compound": "CCCCCCCP(=O)(C(C)CC)C(C)CC", "note": "(stereo not drawn) [CPS-148, 1-(Di-sec-butyl-phosphinoyl)-heptane]", "values": [{"measurement": "cooling activity AUC in (R)-1,2-propanediol", "setting": "philtrum skin; 2 mg/ml, (R)-1,2-propanediol with 1% ethanol vol/vol, philtrum", "value": "173 ± 15", "unit": "cooling intensity × min"}, {"measurement": "cooling activity AUC in racemic-1,2-propanediol", "setting": "philtrum skin; 2 mg/ml, racemic 1,2-propanediol with 1% ethanol vol/vol, philtrum", "value": "75 ± 6", "unit": "cooling intensity × min"}]}, {"compound": "CCOC(=O)[C@@H](C)NC(=O)[C@@H]1C[C@H](C)CC[C@H]1C(C)C", "note": "[CPS-369, (R)-2-[((1R,2S,5R)-2-isopropyl-5-methyl-cyclohexanecarbonyl)-amino]-propionic acid ethyl ester]", "values": [{"measurement": "solubility", "setting": "solubility in solvents; [4]", "value": "> 500000", "unit": "µg/mL"}, {"measurement": "solubility", "setting": "solubility in solvents; [5]", "value": "~10000", "unit": "µg/mL"}, {"measurement": "cooling activity AUC in (R)-1,2-propanediol", "setting": "philtrum skin; [6]", "value": "218 ± 12", "unit": "cooling intensity × min"}, {"measurement": "cooling activity AUC in racemic-1,2-propanediol", "setting": "philtrum skin; [7]", "value": "134 ± 16", "unit": "cooling intensity × min"}]}, {"compound": "CCCOC(=O)[C@@H](C)NC(=O)[C@@H]1C[C@H](C)CC[C@H]1C(C)C", "note": "[CPS-410, (R)-2-[((1R,2S,5R)-2-isopropyl-5-methyl-cyclohexanecarbonyl)-amino]-propionic acid n-propyl ester]", "values": [{"measurement": "sensations of coolness after application to scalp", "setting": "[1]", "value": "produced sensations of coolness"}, {"measurement": "itch after two days of applications", "setting": "[1]", "value": "no longer present"}, {"measurement": "cooling activity AUC in (R)-1,2-propanediol", "setting": "philtrum skin; [6]", "value": "281 ± 7", "unit": "cooling intensity × min"}, {"measurement": "cooling activity AUC in racemic-1,2-propanediol", "setting": "philtrum skin; [7]", "value": "122 ± 12", "unit": "cooling intensity × min"}]}, {"compound": "CCCCOC(=O)[C@@H](C)NC(=O)[C@@H]1C[C@H](C)CC[C@H]1C(C)C", "note": "[CPS-412, (R)-2-[((1R,2S,5R)-2-isopropyl-5-methyl-cyclohexanecarbonyl)-amino]-propionic acid n-butyl ester]", "values": [{"measurement": "sensations of coolness after application to scalp", "setting": "[1]", "value": "less noticeable"}, {"measurement": "itch after two days of applications", "setting": "[1]", "value": "no longer present"}, {"measurement": "cooling activity AUC in (R)-1,2-propanediol", "setting": "philtrum skin; [6]", "value": "243 ± 5", "unit": "cooling intensity × min"}, {"measurement": "cooling activity AUC in racemic-1,2-propanediol", "setting": "philtrum skin; [7]", "value": "127 ± 10", "unit": "cooling intensity × min"}]}, {"compound": "C[S+](C)[O-]", "note": "[Dimethylsulfoxide]", "values": [{"measurement": "in vitro inhibition of TRP-M8 response relative to alcohols", "setting": "TRP-M8 receptor; Benedikt et al. 2007", "value": "less inhibitory"}]}, {"compound": "CCNC(=O)C1CC(C)CCC1C(C)C", "note": "(stereo not drawn) [WS-3, 2-Isopropyl-5-methyl-cyclohexanecarboxylic acid ethylamide]", "values": [{"measurement": "solubility", "setting": "solubility in solvents; [4]", "value": "> 300000", "unit": "µg/mL"}, {"measurement": "solubility", "setting": "solubility in solvents; [5]", "value": "~10000", "unit": "µg/mL"}, {"measurement": "cooling effect", "setting": "philtrum skin; 20 mg/ml in absolute ethanol", "value": "did not produce significant cooling"}, {"measurement": "cooling activity AUC in (R)-1,2-propanediol", "setting": "philtrum skin; 20 mg/ml, (R)-1,2-propanediol with 3% ethanol vol/vol, philtrum", "value": "122 ± 8", "unit": "cooling intensity × min"}, {"measurement": "cooling activity AUC in racemic-1,2-propanediol", "setting": "philtrum skin; 20 mg/ml, racemic 1,2-propanediol with 3% ethanol vol/vol, philtrum", "value": "64 ± 6", "unit": "cooling intensity × min"}]}, {"compound": "CCOC(=O)CNC(=O)[C@@H]1C[C@H](C)CC[C@H]1C(C)C", "note": "[WS-5, [((1R,2S,5R)-2-isopropyl-5-methyl-cyclohexanecarbonyl)-amino]-acetic acid ethyl ester]", "values": [{"measurement": "cooling effect", "setting": "philtrum skin; 10 mg/ml in 100% ethanol", "value": "did not produce any cooling effect"}]}, {"compound": "CCO", "note": "[ethanol]", "values": [{"measurement": "TRP-M8 receptor response to (−)-menthol", "setting": "TRP-M8 receptor; 3% concentration of ethanol", "value": "almost totally lost"}, {"measurement": "Cooling Activity % (relative to (R)-1,2-propanediol)", "setting": "philtrum skin; [3]", "value": "loss of cooling activity; also recorded: inactive"}]}, {"compound": "CC(C)O", "note": "[isopropanol]", "values": [{"measurement": "Cooling Activity % (relative to (R)-1,2-propanediol)", "setting": "philtrum skin; [3]", "value": "loss of cooling activity; also recorded: inactive"}]}, {"compound": "(R)-1,2-propanediol", "values": [{"measurement": "reversal of ethanol inhibition of WS-5 cooling", "setting": "philtrum skin; added at 10%, 20% and 40% vol/vol to ethanolic solution of WS-5 10 mg/ml, philtrum", "value": "reversed the ethanol inhibition in a dose-dependent relationship"}]}, {"compound": "Enbrel®", "values": [{"measurement": "psoriatic condition after a course of treatment", "setting": "[2]", "value": "improved considerably"}]}, {"compound": "n-propanol", "values": [{"measurement": "Cooling Activity % (relative to (R)-1,2-propanediol)", "setting": "philtrum skin; [3]", "value": "loss of cooling activity; also recorded: inactive"}]}]}
